Assay results reported in publication PMC9297976 (Journal of Applied Toxicology, 2021).

Columns and labels:
[1] = biological target: T1, medaka ARβ (mArβ) (Oryzias latipes, UniProt D1MV73); test: Medaka ARβ reporter gene assay, agonist assay; format: cell-based, Japanese medaka (Oryzias latipes); conditions: MAC = 1.0 × 10^−5 M
T1 sequence (D1MV73 1-744): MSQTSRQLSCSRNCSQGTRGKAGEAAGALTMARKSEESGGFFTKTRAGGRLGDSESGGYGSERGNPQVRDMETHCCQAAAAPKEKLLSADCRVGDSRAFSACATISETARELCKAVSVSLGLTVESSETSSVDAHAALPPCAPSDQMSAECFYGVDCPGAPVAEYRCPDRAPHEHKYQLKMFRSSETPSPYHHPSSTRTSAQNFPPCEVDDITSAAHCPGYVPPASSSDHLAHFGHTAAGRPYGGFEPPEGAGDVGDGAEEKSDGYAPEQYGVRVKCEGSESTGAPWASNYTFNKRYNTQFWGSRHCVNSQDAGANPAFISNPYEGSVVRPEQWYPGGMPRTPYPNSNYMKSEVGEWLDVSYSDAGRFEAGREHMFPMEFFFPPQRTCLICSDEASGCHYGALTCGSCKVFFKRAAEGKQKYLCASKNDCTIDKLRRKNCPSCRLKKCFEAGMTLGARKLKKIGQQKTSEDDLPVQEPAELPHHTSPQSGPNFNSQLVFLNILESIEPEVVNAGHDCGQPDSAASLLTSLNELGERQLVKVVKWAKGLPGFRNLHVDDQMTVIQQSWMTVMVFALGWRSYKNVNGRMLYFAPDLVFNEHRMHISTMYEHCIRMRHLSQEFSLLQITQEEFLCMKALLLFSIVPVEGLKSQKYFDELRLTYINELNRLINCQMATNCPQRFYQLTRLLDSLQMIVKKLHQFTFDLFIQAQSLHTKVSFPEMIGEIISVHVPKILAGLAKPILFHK

[2] = biological target: T2, medaka Esr1 (mEsr1) (Oryzias latipes, UniProt P50241); test: Medaka Esr1 reporter gene assay, antagonist assay; format: cell-based, Japanese medaka (Oryzias latipes); conditions: E2 spiked at 0.2 nM (A); MAC = 1.0 × 10^−5 M
T2 sequence (P50241 1-620): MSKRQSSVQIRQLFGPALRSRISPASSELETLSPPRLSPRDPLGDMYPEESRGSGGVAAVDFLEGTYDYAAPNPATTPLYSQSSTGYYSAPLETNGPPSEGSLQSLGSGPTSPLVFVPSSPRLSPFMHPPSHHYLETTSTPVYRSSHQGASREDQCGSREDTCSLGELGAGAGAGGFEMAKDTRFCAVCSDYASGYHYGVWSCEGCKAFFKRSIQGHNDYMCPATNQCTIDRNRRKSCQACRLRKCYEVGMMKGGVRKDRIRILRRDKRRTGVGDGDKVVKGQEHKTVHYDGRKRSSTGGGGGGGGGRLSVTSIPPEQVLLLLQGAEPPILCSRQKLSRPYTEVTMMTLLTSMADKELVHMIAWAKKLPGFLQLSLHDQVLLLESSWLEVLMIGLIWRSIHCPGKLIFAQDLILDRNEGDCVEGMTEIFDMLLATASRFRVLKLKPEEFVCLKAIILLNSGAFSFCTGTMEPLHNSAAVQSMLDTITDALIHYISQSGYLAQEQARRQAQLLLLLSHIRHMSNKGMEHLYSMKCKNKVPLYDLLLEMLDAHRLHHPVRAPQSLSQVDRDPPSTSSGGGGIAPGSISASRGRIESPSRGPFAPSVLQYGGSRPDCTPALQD

[3] = system: Japanese medaka (Oryzias latipes); test: Fish Short‐Term Reproduction Assay; format: in vivo; conditions: for GSI Female / GSI Male / HSI Female / HSI Male / Length Female / Length Male / Weight Female / Weight Male: completion of exposure
[4] = biological target: T2, medaka Esr1 (mEsr1); test: cell-based; parameters: species or system Japanese medaka (Oryzias latipes)
[5] = system: Japanese medaka; conditions: ref Flynn et al. (2018); cited from earlier work
[6] = biological target: T1, medaka ARβ (mArβ); test: Medaka ARβ reporter gene assay, antagonist assay; format: cell-based, Japanese medaka (Oryzias latipes); conditions: 11‐KT spiked at 10 nM (C); MAC = 1.0 × 10^−5 M
[7] = 598 μg/L measured, 21 d, sig. ↑ vs control
[8] = 952 μg/L measured, 21 d, sig. ↑ vs control
[9] = measured concentration 196 μg/L
[10] = measured concentration 598 μg/L
[11] = measured concentration 952 μg/L

CCOP(=S)(OCC)Oc1cc(C)nc(C(C)C)n1 [DZ, Diazinon]
Agonistic activity [1]: NE (MAC = 1.0 × 10^−5 M)
Antagonistic activity [2]: NE (MAC = 1.0 × 10^−5 M)^(A)
Individuals with symptoms of presumed paralysis of motor function ([3]; 38 μg/L): 12.5%
Fertility rate ([3]; 38 μg/L measured, 21 d): 96 ± 0.8%
Hepatic VTG, female ([3]; 38 μg/L measured, 21 d): 2,665 ± 1942 ng/mg‐liver
Hepatic VTG, male ([3]; 38 μg/L measured, 21 d): 0.13 ± 0.16 ng/mg‐liver
Mortality ([3]; 38 μg/L measured, 21 d): 4.2%
Mortality, number of dead fish ([3]; 38 μg/L measured, 21 d): 1
Number of fertilized eggs (per female per day) ([3]; 38 μg/L measured, 21 d): 18 ± 0.7
Number of total eggs (per female per day) ([3]; 38 μg/L measured, 21 d): 19 ± 0.6
SSC female (joint plates with papillary processes) ([3]; 38 μg/L measured, 21 d): 0 ± 0
SSC male (joint plates with papillary processes) ([3]; 38 μg/L measured, 21 d): 82 ± 16
Fish with symptoms of presumed paralysis of motor function (in words) ([3]; 196 μg/L level and above): all fish
Hepatic VTG, female ([3]; 196 μg/L measured, 21 d): 1722 ± 1,394 ng/mg‐liver
Hepatic VTG, male ([3]; 196 μg/L measured, 21 d): 0.08 ± 0.14 ng/mg‐liver
Mortality ([3]; 196 μg/L measured, 21 d): 4.2%
Mortality, number of dead fish ([3]; 196 μg/L measured, 21 d): 1
SSC female (joint plates with papillary processes) ([3]; 196 μg/L measured, 21 d): 0 ± 0
SSC male (joint plates with papillary processes) ([3]; 196 μg/L measured, 21 d): 84 ± 19
Fertility rate ([3]; 196 μg/L measured, 21 d, sig. ↓ vs control): 12 ± 6.3%
Hepatic VTG, female ([3]; 598 μg/L measured, 21 d): 661 ± 552 ng/mg‐liver
Hepatic VTG, male ([3]; 598 μg/L measured, 21 d): 0.06 ± 0.04 ng/mg‐liver
SSC female (joint plates with papillary processes) ([3]; 598 μg/L measured, 21 d): 0 ± 0
SSC male (joint plates with papillary processes) ([3]; 598 μg/L measured, 21 d): 89 ± 17
Mortality [3, 7]: 42%
Mortality, number of dead fish [3, 7]: 10
Fertility rate ([3]; 598 μg/L measured, 21 d, sig. ↓ vs control): 55 ± 6.7%
Hepatic VTG, female ([3]; 952 μg/L measured, 21 d): 1,621 ± 1,314 ng/mg‐liver
Hepatic VTG, male ([3]; 952 μg/L measured, 21 d): 0.89 ± 1.67 ng/mg‐liver
SSC female (joint plates with papillary processes) ([3]; 952 μg/L measured, 21 d): 0 ± 0
SSC male (joint plates with papillary processes) ([3]; 952 μg/L measured, 21 d): 89 ± 15
Mortality [3, 8]: 58%
Mortality, number of dead fish [3, 8]: 14
Fecundity, number of total eggs (in words) ([3]; 21 d): statistically significant decrease
LOECmVTG ([3]; LOEC on VTG induction in males): ND (>952) μg/L
LOECREPRO ([3]; LOEC on reproduction (fecundity and/or fertility)): 196 µg/L
LOECTOX ([3]; lowest observed effect concentration on mortality): 196 µg/L
GSI Female ([3]; measured concentration 38 μg/L): 12.3 ± 1.3%
GSI Male ([3]; measured concentration 38 μg/L): 0.9 ± 0.4%
HSI Female ([3]; measured concentration 38 μg/L): 5.3 ± 1.20%
HSI Male ([3]; measured concentration 38 μg/L): 2.8 ± 1.70%
Length Female ([3]; measured concentration 38 μg/L): 30.7 ± 1.0 mm
Length Male ([3]; measured concentration 38 μg/L): 30.1 ± 0.6 mm
Weight Female ([3]; measured concentration 38 μg/L): 338 ± 36 mg
Weight Male ([3]; measured concentration 38 μg/L): 294 ± 21 mg
GSI Female [3, 9]: 6.8 ± 3.5%
GSI Male [3, 9]: 0.6 ± 0.2%
HSI Female [3, 9]: 2.0 ± 0.70%
HSI Male [3, 9]: 1.6 ± 0.60%
Length Female [3, 9]: 28.5 ± 1.1 mm
Length Male [3, 9]: 28.5 ± 0.6 mm
Weight Female [3, 9]: 217 ± 19 mg
Weight Male [3, 9]: 200 ± 14 mg
GSI Female [3, 10]: 3.3 ± 0.7%
GSI Male [3, 10]: 0.4 ± 0.1%
HSI Female [3, 10]: 1.9 ± 0.30%
HSI Male [3, 10]: 1.2 ± 0.40%
Length Female [3, 10]: 28.7 ± 0.0 mm
Length Male [3, 10]: 29.6 ± 0.2 mm
Weight Female [3, 10]: 203 ± 47 mg
Weight Male [3, 10]: 190 ± 13 mg
GSI Female [3, 11]: 6.9 ± 2.4%
GSI Male [3, 11]: 0.5 ± 0.1%
HSI Female [3, 11]: 1.6 ± 0.50%
HSI Male [3, 11]: 1.5 ± 0.60%
Length Female [3, 11]: 27.5 ± 0.8 mm
Length Male [3, 11]: 28.3 ± 1.2 mm
Weight Female [3, 11]: 203 ± 26 mg
Weight Male [3, 11]: 183 ± 20 mg
Agonistic activity PC10 [4]: PC10 = 1.0 × 10^−5 M
In vitro positive: Esr ([4]; mode of action in which EC50 or PC10 was obtained in RGA): Esr
LOEC on fecundity [5]: 2.9 µg/L
LOEC on growth [5]: 5.2 µg/L
Antagonistic activity [6]: NE (MAC = 1.0 × 10^−5 M)^(C)
